The text below walks through data of ChEMBL document CHEMBL1811847, “Initial efforts toward the optimization of arylomycins for antibiotic activity” (2011).

≈ marks a conversion by molar mass, not a printed value.

Broadly, the MIC is the least concentration at which growth counts as inhibited. Read a high MIC as weaker potency.

Format in all cases: functional
Assay [1] concerns Pseudomonas aeruginosa. The assay can be described thus: Antibacterial activity against wild-type Pseudomonas aeruginosa PAO1 after 24 hrs by CLSI broth microdilution method. Conditions: PAO1, 24 h. For orientation: In broth dilution the organism is exposed to a series of concentrations in liquid medium.
In assay [2] the test system is Staphylococcus epidermidis. Kind of assay: Antibacterial activity against wild-type Staphylococcus epidermidis RP62A after 24 hrs by CLSI broth microdilution method.
Assay [3] has as its system Pseudomonas aeruginosa. Kind of assay: Antibacterial activity against Pseudomonas aeruginosa PAO1 harboring lepB P84L mutant after 24 hrs by CLSI broth microdilution method. Conditions: PAO1, 24 h.
For assay [4], the system named is Escherichia coli. Kind of assay: Antibacterial activity against Escherichia coli MG1655 after 24 hrs by CLSI broth microdilution method. Conditions: MG1655, 24 h.
The test system of assay [5] is Staphylococcus epidermidis. Kind of assay: Antibacterial activity against Staphylococcus epidermidis RP62A harboring spsB S29P mutant after 24 hrs by CLSI broth microdilution method.
The test system of assay [6] is Staphylococcus aureus. The assay can be described thus: Antibacterial activity against wild-type Staphylococcus aureus NCTC 8325 after 24 hrs by CLSI broth microdilution method. Conditions: NCTC 8325, 24 h.
For assay [7], the system named is Escherichia coli. The assay can be described thus: Antibacterial activity against Escherichia coli MG1655 harboring lepB P84L mutant after 24 hrs by CLSI broth microdilution method. Conditions: MG1655, 24 h.
Assay [8] deals with Staphylococcus aureus. Kind of assay: Antibacterial activity against Staphylococcus aureus NCTC 8325 harboring lepB P29S mutant after 24 hrs by CLSI broth microdilution method. Conditions: NCTC 8325, 24 h.
Assay [9] relates to Staphylococcus aureus. Kind of assay: Antibacterial activity against methicillin-resistant Staphylococcus aureus isolate USA300.

Regarding `CCCCCCCCc1ccc(C(=O)N(C)[C@H](CO)C(=O)N[C@H](C)C(=O)NCC(=O)N(C)[C@@H]2C(=O)N[C@@H](C)C(=O)N[C@H](C(=O)O)Cc3ccc(O)c(c3)-c3cc2ccc3O)cc1`, the minimal inhibitory concentration (MIC) in the assay with Pseudomonas aeruginosa [1] was more than 64 µg/mL; in [2], 1 µg/mL (≈ 1.16 µM); against Pseudomonas aeruginosa [3], 64 µg/mL (≈ 74.5 µM); with Escherichia coli [4] it was more than 64 µg/mL; in [5], more than 64 µg/mL; in the assay on Staphylococcus aureus [6], more than 64 µg/mL. For the same compound, the minimal inhibitory concentration (MIC) against Escherichia coli [7] and in the assay with Staphylococcus aureus [8] was 8 µg/mL (≈ 9.31 µM) in each case.

Take `CCCCCCCCCCc1ccc(C(=O)N(C)[C@H](CO)C(=O)N[C@H](C)C(=O)NCC(=O)N(C)[C@@H]2C(=O)N[C@@H](C)C(=O)N[C@H](C(=O)O)Cc3ccc(O)c(c3)-c3cc2ccc3O)cc1`: the MIC with Pseudomonas aeruginosa [1] is more than 64 µg/mL; in assay [2] it was 0.5 µg/mL (≈ 0.564 µM); in the assay on Pseudomonas aeruginosa [3], 16 µg/mL (≈ 18 µM); in the assay on Escherichia coli [4], more than 64 µg/mL; in assay [5] it was 16 µg/mL (≈ 18 µM); against Staphylococcus aureus [6], 32 µg/mL (≈ 36.1 µM). Also, the MIC in the assay on Escherichia coli [7] was 2 µg/mL (≈ 2.25 µM); against Staphylococcus aureus [8] it was 4 µg/mL (≈ 4.51 µM).

As to `CCCCCCCCCCCCCCCC(=O)N[C@@H](CO)C(=O)N[C@@H](C)C(=O)NCC(=O)N(C)[C@@H]1C(=O)N[C@@H](C)C(=O)N[C@H](C(=O)O)Cc2ccc(O)c(c2)-c2cc1ccc2O`, the minimal inhibitory concentration (MIC) in the assay on Pseudomonas aeruginosa [1], with Escherichia coli [4] and with Staphylococcus aureus [6] was more than 64 µg/mL each time.

Consider `CCCCCCCCCCCCCCCC(=O)N[C@@H](CO)C(=O)N(C)[C@@H](C)C(=O)N(C)CC(=O)N(C)[C@@H]1C(=O)N[C@@H](C)C(=O)N[C@H](C(=O)O)Cc2ccc(O)c(c2)-c2cc1ccc2O`, for which the MIC (in the assay on Pseudomonas aeruginosa [1]; in [2]; against Escherichia coli [4]; in the assay with Staphylococcus aureus [6]) was more than 64 µg/mL in each case.

Consider `CCCCCCCCCCCCCCCC(=O)N1C[C@@H](O)C[C@H]1C(=O)N[C@@H](C)C(=O)NCC(=O)N(C)[C@@H]1C(=O)N[C@@H](C)C(=O)N[C@H](C(=O)O)Cc2ccc(O)c(c2)-c2cc1ccc2O`, for which the MIC against Pseudomonas aeruginosa [1] was more than 64 µg/mL; in assay [2] it was 4 µg/mL (≈ 4.48 µM); against Escherichia coli [4] it was more than 64 µg/mL; in [5], 8 µg/mL (≈ 8.96 µM); against Staphylococcus aureus [6] it was more than 64 µg/mL; with Staphylococcus aureus [8], 4 µg/mL (≈ 4.48 µM).

In the case of `CCCCCCCCCCCCCCCC(=O)N(C)[C@@H](CO)CC(=O)N[C@@H](C)C(=O)NCC(=O)N(C)[C@@H]1C(=O)N[C@@H](C)C(=O)N[C@H](C(=O)O)Cc2ccc(O)c(c2)-c2cc1ccc2O`, the MIC was more than 64 µg/mL in the assay on Pseudomonas aeruginosa [1]; 4 µg/mL (≈ 4.47 µM) in assay [2]; more than 64 µg/mL against Escherichia coli [4]; 8 µg/mL (≈ 8.94 µM) in [5]; 64 µg/mL (≈ 71.5 µM) against Staphylococcus aureus [6]; 16 µg/mL (≈ 17.9 µM) with Staphylococcus aureus [8].

For the compound `CCCCCCCCCCCCCCCC(=O)N(C)[C@@H](CO)CCC(=O)N[C@@H](C)C(=O)NCC(=O)N(C)[C@@H]1C(=O)N[C@@H](C)C(=O)N[C@H](C(=O)O)Cc2ccc(O)c(c2)-c2cc1ccc2O`, the MIC is more than 64 µg/mL in the assay with Pseudomonas aeruginosa [1]; 8 µg/mL (≈ 8.8 µM) in assay [2]; more than 64 µg/mL in the assay with Escherichia coli [4]; 16 µg/mL (≈ 17.6 µM) in [5]; 16 µg/mL (≈ 17.6 µM) in the assay on Staphylococcus aureus [6]; 4 µg/mL (≈ 4.4 µM) against Staphylococcus aureus [8].

For the compound `CCCCCCCCCCCCCCC(C)C(=O)N[C@@H](C)C(=O)NCC(=O)N(C)[C@@H]1C(=O)N[C@@H](C)C(=O)N[C@H](C(=O)O)Cc2ccc(O)c(c2)-c2cc1ccc2O` (mixture of isomers), the MIC is more than 64 µg/mL in the assay with Pseudomonas aeruginosa [1]; 8 µg/mL in [2]; more than 64 µg/mL against Escherichia coli [4]; more than 64 µg/mL in [5]; more than 64 µg/mL against Staphylococcus aureus [6].

On to `CCCCCCCCCCCCCCCC(=O)N(C)[C@@H](CO)C(=O)NCC(C)C(=O)NCC(=O)N(C)[C@@H]1C(=O)N[C@@H](C)C(=O)N[C@H](C(=O)O)Cc2ccc(O)c(c2)-c2cc1ccc2O` (mixture of isomers), for which the minimal inhibitory concentration (MIC) in the assay on Pseudomonas aeruginosa [1] was more than 64 µg/mL; in [2], 8 µg/mL; against Pseudomonas aeruginosa [3], 16 µg/mL; against Escherichia coli [4] it was more than 64 µg/mL; in assay [5] it was 16 µg/mL; against Staphylococcus aureus [6] it was more than 64 µg/mL. This compound also yielded a minimum inhibitory concentration (MIC) against Escherichia coli [7] of 8 µg/mL.

As for `CCCCCCCCCCCCCCCC(=O)N(C)[C@@H](CO)C(=O)NCCC(C)C(=O)NCC(=O)N(C)[C@@H]1C(=O)N[C@@H](C)C(=O)N[C@H](C(=O)O)Cc2ccc(O)c(c2)-c2cc1ccc2O` (mixture of isomers), the minimum inhibitory concentration (MIC) in the assay on Pseudomonas aeruginosa [1] is more than 64 µg/mL; in assay [2] it was 8 µg/mL; in the assay with Escherichia coli [4], more than 64 µg/mL; in assay [5] it was 8 µg/mL; in the assay with Staphylococcus aureus [6] it was more than 64 µg/mL; against Staphylococcus aureus [8], 8 µg/mL.

In turn, `CC(C)CCCCCCCCC(=O)N(C)[C@H](CO)C(=O)N[C@H](C)C(=O)NCC(=O)N(C)[C@@H]1C(=O)N[C@@H](C)C(=O)N[C@H](C(=O)O)Cc2ccc(O)c(c2)-c2cc1ccc2O` [ARYLOMYCIN A2] had an MIC against Staphylococcus aureus [9] of 16 µg/mL (≈ 19.4 µM).

As for `CCCCCCCCCCCCCCCC(=O)N(C)[C@H](CO)C(=O)N[C@H](C)C(=O)NCC(=O)N(C)[C@@H]1C(=O)N[C@@H](C)C(=O)N[C@H](C(=O)O)Cc2ccc(O)c(c2)-c2cc1ccc2O` [ARYLOMYCIN C16], the MIC in the assay on Pseudomonas aeruginosa [1] was more than 64 µg/mL; in [2], 0.5 µg/mL (≈ 0.567 µM); against Pseudomonas aeruginosa [3], 8 µg/mL (≈ 9.08 µM); in the assay with Escherichia coli [4] it was more than 64 µg/mL; in the assay with Staphylococcus aureus [9], 16 µg/mL (≈ 18.2 µM); with Staphylococcus aureus [6] it was more than 64 µg/mL.
